Assay results taken from PMC9265830, “Purification and Identification of a Novel Angiotensin Converting Enzyme Inhibitory Peptide from the Enzymatic Hydrolysate of Lepidotrigla microptera” (Foods, 2022).
Entries after “also recorded” stand apart in the source; their conditions may differ. Where no end group is shown, it is not given here.

How the values were obtained:
pepsin, pancreatin = assay: Simulated gastrointestinal digestion; format: in vitro ADME; settings: 0.2 mg/mL; pepsin 0.05% pH 2.0 2 h 37 °C, then pancreatin 0.05% pH 7.5 2 h 37 °C; read-out ACE inhibition
Experimental: (§1) ACE-inhibitory activity was determined following the method of Cushman. The reaction system comprised a sample (10 μL), HHL (2.5 mM, 30 μL), and ACE solution (0.1 U/mL, 20 μL) in sodium borate buffer (pH 8.3, 0.3 M NaCl). The mixture of HHL and the sample was pre-incubated for 15 min at 37 °C before adding the ACE solution. The reaction was carried out for 40 min at 37 °C in a water bath and terminated by adding HCl (1 mol/L, 60 μL). Then 20 μL of the reaction mixture was injected into an HPLC system (Shimadzu, Japan) equipped with a C-18 column (150 × 4.6 mm, 5 μm). In order to detect the concentration of HA (hippuric acid), isocratic elution was performed for 25 min in 80% mobile phase A (0.05% Trifluoroacetic acid in H2O) and 20% mobile phase B (Acetonitrile) at a 0.8 mL/min flow rate, and the detection wavelength was 280 nm. The ACE-inhibitory activity was calculated according to the formula:ACE-inhibitory activity (%) = (A1 − A2)/A1(1) where A1 and A2 equal the peak areas of blank control and the sample, respectively.
Simulated gastrointestinal digestion of ACE-inhibitory peptides was conducted following the method of Lai et al. with slight modifications. […]

[1] = pH stability of ACE inhibitory activity; format: physicochemical; settings: 0.2 mg/mL, 37 °C, 2 h, pH 3 to 11 (method: 2, 4, 6, 8, 10), readjusted to pH 7.0; read-out ACE inhibition
Experimental: as §1
The ACE-inhibitory peptide solution (0.2 mg/mL) was incubated at different pH levels (2, 4, 6, 8, and 10) at 37 °C for 2 h, and the pH value was adjusted by adding HCl (1 mol/L) and NaOH (1 mol/L). Before the ACE inhibition rate was determined, the pH value was adjusted to 7.0.

ACE [2] = molecular target: T1, ACE (Homo sapiens, UniProt P12821); assay: Inhibitory kinetics study (Lineweaver–Burk plots); format: biochemical; settings: for Vmax of the enzyme reaction: HHL 1-5 mM, Vmax without peptide 20 mM/min
T1 sequence (P12821 30-1306, species assumed): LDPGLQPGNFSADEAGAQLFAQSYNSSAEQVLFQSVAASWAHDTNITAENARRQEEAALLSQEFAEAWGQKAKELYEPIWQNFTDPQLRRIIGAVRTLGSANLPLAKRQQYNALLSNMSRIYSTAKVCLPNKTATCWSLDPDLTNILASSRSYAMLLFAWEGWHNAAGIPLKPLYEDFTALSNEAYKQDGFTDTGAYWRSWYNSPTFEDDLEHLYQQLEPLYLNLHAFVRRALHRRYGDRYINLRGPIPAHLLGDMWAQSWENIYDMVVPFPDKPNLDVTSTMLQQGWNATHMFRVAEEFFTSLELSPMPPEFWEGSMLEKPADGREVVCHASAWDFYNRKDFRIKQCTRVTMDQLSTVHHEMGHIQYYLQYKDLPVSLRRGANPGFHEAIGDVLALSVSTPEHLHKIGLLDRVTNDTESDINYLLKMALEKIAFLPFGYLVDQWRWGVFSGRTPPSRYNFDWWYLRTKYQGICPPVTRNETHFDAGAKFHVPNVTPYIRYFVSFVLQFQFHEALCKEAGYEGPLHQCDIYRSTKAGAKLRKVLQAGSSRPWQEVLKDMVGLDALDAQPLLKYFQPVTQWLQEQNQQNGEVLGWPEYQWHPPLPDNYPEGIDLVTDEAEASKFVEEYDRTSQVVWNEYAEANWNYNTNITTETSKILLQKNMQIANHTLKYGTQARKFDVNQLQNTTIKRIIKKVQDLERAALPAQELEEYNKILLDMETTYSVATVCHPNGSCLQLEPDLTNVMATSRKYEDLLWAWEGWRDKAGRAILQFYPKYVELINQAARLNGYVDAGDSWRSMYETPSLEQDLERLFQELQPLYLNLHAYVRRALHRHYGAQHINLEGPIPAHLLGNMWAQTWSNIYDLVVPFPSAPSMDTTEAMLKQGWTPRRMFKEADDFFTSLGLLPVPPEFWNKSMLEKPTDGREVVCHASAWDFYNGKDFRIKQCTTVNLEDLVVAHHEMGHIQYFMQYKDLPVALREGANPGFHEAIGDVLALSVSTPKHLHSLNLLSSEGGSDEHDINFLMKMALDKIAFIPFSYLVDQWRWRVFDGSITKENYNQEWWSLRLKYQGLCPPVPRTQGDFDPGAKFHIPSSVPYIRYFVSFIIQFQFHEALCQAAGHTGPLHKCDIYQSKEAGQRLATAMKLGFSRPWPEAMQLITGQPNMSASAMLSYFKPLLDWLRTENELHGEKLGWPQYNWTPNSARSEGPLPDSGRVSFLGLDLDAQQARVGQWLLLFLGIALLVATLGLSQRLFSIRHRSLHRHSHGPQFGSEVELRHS
Experimental: Different concentrations of ACE-inhibitory peptide (0, 60, and 120 μM) were mixed with various concentrations of HHL solution (1, 2, 3, 4 and 5 mM) and pre-incubated for 5 min at 37 °C. Then the reaction was initiated by adding 80 µL of ACE and terminated by adding 20 µL of 1 mol/L HCl. The Lineweaver–Burk plot of the reciprocal of the HHL concentration (1/[s]) and the HA production rate (1/[v]) were used to analyze the inhibitory kinetics of peptide.

[3] = Thermal stability of ACE inhibitory activity; format: physicochemical
Experimental: as §1
The sample (0.2 mg/mL) was treated at various temperatures (20, 40, 60, 80, and 100 °C) for 1 h. After cooling the solution to indoor temperature (25 °C), the ACE inhibition activity was detected.

ACE [4] = molecular target: T1, ACE; assay: ACE-inhibitory activity (HHL substrate, hippuric acid by HPLC); format: biochemical; settings: ultrafiltration, Sephadex G-15 and prep-HPLC fractions; chemically synthesized peptides; read-out: IC50 (ACE inhibition) of fractions and synthesized peptides (converted)
Experimental: as §1

Compound | Relative ACE inhibition activity before and after digestion (pepsin, pancreatin) | ACE-inhibitory activity after pH treatment [1] | Vmax of the enzyme reaction (ACE [2]; 60 μM peptide) | Vmax of the enzyme reaction (ACE [2]; 120 μM peptide) | Inhibitory kinetic mechanism (ACE [2]; Lineweaver–Burk plot) | ACE-inhibitory activity after heat treatment ([3]; 0.2 mg/mL, 1 h, temperature above 60 °C (up to 100 °C), read-out ACE inhibition) | ACE-inhibitory rate after heat treatment ([3]; 0.2 mg/mL, 1 h, temperature range 20 to 60 °C, read-out ACE inhibition) | Stability of ACE-inhibitory activity (abstract summary) ([3]; temperatures (<100 °C) and pH values (3.0–11.0)) | IC50 (ACE [4])
CC(C)C[C@H](NC(=O)CNC(=O)[C@H](C)NC(=O)[C@@H](NC(=O)[C@H](CC(C)C)NC(=O)[C@@H](N)CC(=O)O)[C@@H](C)O)C(=O)N[C@@H](CC(C)C)C(=O)N[C@@H](CCC(=O)O)C(=O)O [DLTAGLLE, Phe-Leu-Thr-Ala-Gly-Leu-Leu-Asp] | retained after gastrointestinal digestion; also recorded: essentially unchanged | maintained high ACE-inhibitory activity at all pH values | 5 mM/min | 2.78 mM/min | noncompetitive | slightly decreased | remained relatively stable | stable | –
YLTLFLLT [YLTLFLLT, Tyr-Leu-Thr-Leu-Phe-Leu-Leu-Thr] | – | – | – | – | – | – | – | – | 214 µM
